Test results as given in BigSolDB 2.1.

O=C(Nc1ccc(Cl)cc1)Nc1ccc(Cl)c(Cl)c1
solubility (mole fraction)
Settings | 288.15 K | 293.15 K | 298.15 K | 303.15 K | 308.15 K | 313.15 K | 318.15 K
in ethylene glycol | 4.25e-06 | 5.89e-06 | 8.3e-06 | 1.02e-05 | 1.38e-05 | 2.14e-05 | 2.64e-05
in water | 1.96e-09 | 2.38e-09 | 2.85e-09 | 3.78e-09 | 5.72e-09 | 7.48e-09 | 9.28e-09
